Laboratory results reported in patent publication US20230181746A1, “BENZOYLHYDRAZIDE-DERIVED HDAC DEGRADERS AS THERAPEUTICS FOR TREATING CANCER AND OTHER HUMAN DISEASES” (University of Florida Research Foundation, Inc., priority 2020, published 2023).

Molecular target: HDAC3 (Homo sapiens, UniProt O15379)
Assay: HDAC3 degradation in breast cancer cell lines, Western blot
Assay type: cell-based
Design: endogenous in cells; host or cells: MDA-MB-468, T47D, MCF7
Conditions: MDA-MB-468 cells
Excerpt: Data are presented as representative figures of two independent experiments.
Cells were lysed for WB with antibodies against the indicated proteins. Antibodies against acetylated histones at specific sites (H3K27 and H4K5) and acetyl-lysine were used to assess levels of histone acetylation.
Cells were lysed for WB. […] The indicated BC cell lines were exposed to DMSO, XZ9002, or XZ9002-NC at the indicated concentrations. Colonies were fixed and stained.
Cell lines were obtained from ATCC and subsequently authenticated. Cells were cultured with DMEM supplemented with 10% bovine calf serum, penicillin to 10 units/mL, and streptomycin to 10 μg/mL. For viability assays, 5,000 cells/well were seeded in 96-well plates. […] For colony formation assay, cells (˜1,000 cells/well) were seeded in a 24-well plate in quadruplicates. […] Medium was replaced with freshly prepared medium containing DMSO, XZ9002 or XZ9002-NC every five days until visible colonies appeared, typically in 15 to 20 days after initial cell seeding. Cells were fixed with 4% paraformaldehyde for 15 min and stained with 2% methylene blue in 20% ethanol for 30 min to 1 h. The cells were washed twice with distilled water and dried in air. For western blotting, cell cultures were exposed to compounds as indicated in relevant figures. Medium was removed from culture plate, and 1 x passive lysis buffer was then added, the plates were frozen at −80° C. overnight and thawed at room temperature. The total cell lysates were mixed with a one fifth volume of 6x SDS sample buffer, heated at 95° C. for 5 min and cooled on ice. The lysates were cleared by centrifugation and then subjected to SDS-PAGE and western blotting essentially as described.

HDAC3, sequence (O15379 whole entry): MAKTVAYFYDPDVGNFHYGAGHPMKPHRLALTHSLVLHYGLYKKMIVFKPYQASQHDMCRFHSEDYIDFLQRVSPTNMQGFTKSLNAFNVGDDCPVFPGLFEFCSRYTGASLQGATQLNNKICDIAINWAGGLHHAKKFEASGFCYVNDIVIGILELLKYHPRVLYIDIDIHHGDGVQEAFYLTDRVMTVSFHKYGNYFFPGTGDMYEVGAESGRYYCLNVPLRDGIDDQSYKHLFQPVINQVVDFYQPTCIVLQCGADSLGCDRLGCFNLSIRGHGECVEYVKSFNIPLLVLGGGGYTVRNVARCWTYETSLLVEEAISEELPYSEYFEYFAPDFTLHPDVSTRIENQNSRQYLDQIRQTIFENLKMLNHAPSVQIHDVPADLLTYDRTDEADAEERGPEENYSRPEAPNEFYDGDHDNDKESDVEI
HDAC3, sequence (Q9Y618 395-498 partner limits assumed): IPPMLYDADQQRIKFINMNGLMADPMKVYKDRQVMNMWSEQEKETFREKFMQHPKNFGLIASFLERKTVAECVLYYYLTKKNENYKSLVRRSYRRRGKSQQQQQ

- start of HDAC3 degradation (125 nM): ≤ 2 h
- time for HDAC3 to rebound to the steady level after washout (125 nM for 14 h, then drug-free medium): more than 12 h
- HDAC3 degraded (125 nM, 8 h): 70%
- DC50 (14 h treatment, read-out: HDAC3 DC50 (the concentration for 50% protein degradation)): 42 nM
- HDAC3 degradation after pre-incubation with proteasome inhibitor MG132 (MG132 1 μM for 1 h, XZ9002 125 nM): blocked
- HDAC3 degradation after pre-incubation with VHL ligand VH032 (VH032 10 μM for 1 h, XZ9002 125 nM): blocked
Compound: CCCNNC(=O)c1ccc(-c2ccc(NC(=O)CCCCCCC(=O)N[C@H](C(=O)N3C[C@H](O)C[C@H]3C(=O)N[C@@H](C)c3ccc(-c4scnc4C)cc3)C(C)(C)C)cc2)cc1 [XZ9002, N^1—((S)-1-((2S,4R)-4-hydroxy-2-(((S)-1-(4-(4-methylthiazol-5-yl)phenyl)ethyl)carbamoyl)pyrrolidin-1-yl)-3,3-dimethyl-1-oxobutan-2-yl)-N^5-(4′-(2-propylhydrazine-1-carbonyl)-[1,1′-biphenyl]-4-yl)octanediamide]
